Consider 20 compounds from patent publication US8716303B2, “N-(hetero)aryl-pyrrolidine derivatives of pyrazol-4-yl-pyrrolo[2,3-d]pyrimidines and pyrrol-3-yl-pyrrolo[2,3-d]pyrimidines as janus kinase inhibitors” (Incyte Corporation, priority 2009, dated 2014).

The structures appear in SMILES notation. Where only a bound is given, the exact number is not on record here.

For experiment [1], the target named is T1, human JAK1 (a.a. 837-1142) (Homo sapiens, UniProt P23458).
T1 construct: human JAK1 (a.a. 837-1142); His tag (N); made in house; host or cells: insect cells (baculovirus)
The experiment is described as follows: In vitro JAK kinase assay (HTRF, phosphorylation of a biotinylated peptide), JAK1. The experiment is classed as biochemical. As to the method:
(§1) Compounds herein were tested for inhibitory activity of JAK targets according to the following in vitro assay described in Park et al., Analytical Biochemistry 1999, 269, 94-104. The catalytic domains of human JAK1 (a.a. 837-1142), Jak2 (a.a. 828-1132) and Jak3 (a.a. 781-1124) with an N-terminal His tag were expressed using baculovirus in insect cells and purified. The catalytic activity of JAK1, JAK2 or JAK3 was assayed by measuring the phosphorylation of a biotinylated peptide. The phosphorylated peptide was detected by homogenous time resolved fluorescence (HTRF). IC50s of compounds were measured for each kinase in the 40 microL reactions that contain the enzyme, ATP and 500 nM peptide in 50 mM Tris (pH 7.8) buffer with 100 mM NaCl, 5 mM DTT, and 0.1 mg/mL (0.01%) BSA. The ATP concentration in the reactions was 90 μM for Jak1, 30 μM for Jak2 and 3 μM for Jak3 for Km conditions. For the 1 mM IC50 measurements, ATP concentration in the reactions was 1 mM. Reactions were carried out at RT for 1 h and then stopped with 20 μL 45 mM EDTA, 300 nM SA-APC, 6 nM Eu-Py20 in assay buffer (Perkin Elmer, Boston, Mass.). Binding to the Europium labeled antibody took place for 40 min and HTRF signal was measured on a Fusion plate reader (Perkin Elmer, Boston, Mass.).
(§2) Compounds herein were tested for inhibitory activity of JAK1 and JAK2 targets according to the assay of Example A (experiments run at Km or 1 mM as indicated). The symbol “+” indicates an IC50<50 nM; the symbol “++” indicates an IC50≧50 and ≦100 nM; and the symbol “+++” indicates an IC50>100 and ≦500 nM.

Experiment [2] has as its target T2, Jak2 (a.a. 828-1132) (Homo sapiens, UniProt O60674).
T2 construct: Jak2 (a.a. 828-1132); His tag (N); made in house; host or cells: insect cells (baculovirus)
Description: In vitro JAK kinase assay (HTRF, phosphorylation of a biotinylated peptide), JAK2, reported as JAK2/JAK1 ratio. The experiment is classed as biochemical. The procedure:
as §1, §2

Where [3] appears, read: Assay Conditions Km (ATP 90 μM for Jak1).
Setting [4] is: Assay Conditions Km (ATP 90 μM for Jak1, 30 μM for Jak2).

T1 sequence (P23458 849-1154): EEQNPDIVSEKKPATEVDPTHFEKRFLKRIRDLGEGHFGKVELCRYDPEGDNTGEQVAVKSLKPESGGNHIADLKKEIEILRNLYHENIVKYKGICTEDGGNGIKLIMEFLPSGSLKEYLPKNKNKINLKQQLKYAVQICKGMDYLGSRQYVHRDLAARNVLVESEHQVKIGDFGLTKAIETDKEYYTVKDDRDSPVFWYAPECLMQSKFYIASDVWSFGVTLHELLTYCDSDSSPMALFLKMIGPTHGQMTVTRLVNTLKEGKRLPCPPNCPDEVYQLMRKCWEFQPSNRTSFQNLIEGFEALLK
T2 sequence (O60674 828-1132): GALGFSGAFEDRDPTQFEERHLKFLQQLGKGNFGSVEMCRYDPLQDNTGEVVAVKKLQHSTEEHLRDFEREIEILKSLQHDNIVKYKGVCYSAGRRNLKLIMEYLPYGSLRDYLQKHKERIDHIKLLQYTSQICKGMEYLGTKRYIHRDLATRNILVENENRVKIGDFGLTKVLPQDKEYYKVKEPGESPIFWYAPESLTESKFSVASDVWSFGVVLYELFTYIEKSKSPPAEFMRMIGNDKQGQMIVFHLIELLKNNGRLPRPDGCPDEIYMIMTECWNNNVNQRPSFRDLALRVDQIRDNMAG

The compound `N#CCC(C1CCN(c2nc3ncccc3o2)C1)n1cc(-c2ncnc3[nH]ccc23)cn1` (single isomer, unassigned) [Example 12, 3-(1-[1,3]oxazolo[4,5-b]pyridin-2-ylpyrrolidin-3-yl)-3-[4-(7H-pyrrolo[2,3-d]pyrimidin-4-yl)-1H-pyrazol-1-yl]propanenitrile] yielded an IC50 in experiment [1] (setting [3]) of less than 50 nM. In addition, the “JAK2/JAK1 IC50 ratio” value in experiment [2] (setting [4]) is listed as 2.4.
In the same order, the values of `N#CCC(C1CCN(c2nc3cccnc3o2)C1)n1cc(-c2ncnc3[nH]ccc23)cn1` (single isomer, unassigned) [Example 13a, 3-(1-[1,3]oxazolo[5,4-b]pyridin-2-ylpyrrolidin-3-yl)-3-[4-(7H-pyrrolo[2,3-d]pyrimidin-4-yl)-1H-pyrazol-1-yl]propanenitrile] are less than 50 nM and 12.
In the same order, the values of `N#CCC(C1CCN(c2nc3cccnc3o2)C1)n1cc(-c2ncnc3[nH]ccc23)cn1` (single isomer, unassigned) [Example 13b, 3-(1-[1,3]oxazolo[5,4-b]pyridin-2-ylpyrrolidin-3-yl)-3-[4-(7H-pyrrolo[2,3-d]pyrimidin-4-yl)-1H-pyrazol-1-yl]propanenitrile] are less than 50 nM and 2.1.
In experiment [1] (setting [3]), `Cc1cnc2oc(N3CCC(C(CC#N)n4cc(-c5ncnc6[nH]ccc56)cn4)C3)nc2c1` (single isomer, unassigned) [Example 14, 3-[1-(6-methyl[1,3]oxazolo[5,4-b]pyridin-2-yl)pyrrolidin-3-yl]-3-[4-(7H-pyrrolo[2,3-d]pyrimidin-4-yl)-1H-pyrazol-1-yl]propanenitrile] had an IC50 of less than 50 nM. For the same compound, the “JAK2/JAK1 IC50 ratio” value in experiment [2] (setting [4]) came to 4.
`N#CCC(C1CCN(c2nc3cc(F)cnc3o2)C1)n1cc(-c2ncnc3[nH]ccc23)cn1` (single isomer, unassigned) [Example 15, 3-[1-(6-fluoro[1,3]oxazolo[5,4-b]pyridin-2-yl)pyrrolidin-3-yl]-3-[4-(7H-pyrrolo[2,3-d]pyrimidin-4-yl)-1H-pyrazol-1-yl]propanenitrile] showed an IC50 in experiment [1] (setting [3]) of less than 50 nM. In addition, the “JAK2/JAK1 IC50 ratio” value in experiment [2] (setting [4]) is reported as 6.8.
Compound `N#CCC(C1CCN(c2ncc3cc[nH]c3n2)C1)n1cc(-c2ncnc3[nH]ccc23)cn1` (single isomer, unassigned) [Example 16, 3-[4-(7H-pyrrolo[2,3-d]pyrimidin-4-yl)-1H-pyrazol-1-yl]-3-[1-(7H-pyrrolo[2,3-d]pyrimidin-2-yl)pyrrolidin-3-yl]propanenitrile] came in with an IC50 in experiment [1] (Assay Conditions 1 mM ATP) of less than 50 nM. Also, the “JAK2/JAK1 IC50 ratio” value in experiment [2] (Assay Conditions 1 mM ATP) turned out to be 11.4.
In the same order, the values of `Cn1ccc2cnc(N3CCC(C(CC#N)n4cc(-c5ncnc6[nH]ccc56)cn4)C3)nc21` (single isomer, unassigned) [Example 17, 3-[1-(7-methyl-7H-pyrrolo[2,3-d]pyrimidin-2-yl)pyrrolidin-3-yl]-3-[4-(7H-pyrrolo[2,3-d]pyrimidin-4-yl)-1H-pyrazol-1-yl]propanenitrile] are 100 to 500 nM and 8.
On the same counts, the results for `N#CCC(C1CCN(c2nc3cncnc3o2)C1)n1cc(-c2ncnc3[nH]ccc23)cn1` (single isomer, unassigned) [Example 18, 3-(1-[1,3]oxazolo[5,4-d]pyrimidin-2-ylpyrrolidin-3-yl)-3-[4-(7H-pyrrolo[2,3-d]pyrimidin-4-yl)-1H-pyrazol-1-yl]propanenitrile] are 50 to 100 nM and 10.3.
In the same order, the values of `N#CCC(C1CCN(c2nc3cc(F)ccc3o2)C1)n1cc(-c2ncnc3[nH]ccc23)cn1` (single isomer, unassigned) [Example 19, 3-[1-(5-fluoro-1,3-benzoxazol-2-yl)pyrrolidin-3-yl]-3-[4-(7H-pyrrolo[2,3-d]pyrimidin-4-yl)-1H-pyrazol-1-yl]propanenitrile] are less than 50 nM and 5.3.
As for `N#CCC(C1CCN(c2nc3c(F)cccc3o2)C1)n1cc(-c2ncnc3[nH]ccc23)cn1` (single isomer, unassigned) [Example 20, 3-[1-(4-fluoro-1,3-benzoxazol-2-yl)pyrrolidin-3-yl]-3-[4-(7H-pyrrolo[2,3-d]pyrimidin-4-yl)-1H-pyrazol-1-yl]propanenitrile], the 50% inhibitory concentration (IC50) in experiment [1] (Assay Conditions 1 mM ATP) is less than 50 nM. The “JAK2/JAK1 IC50 ratio” value in experiment [2] (Assay Conditions 1 mM ATP) is listed as 10.4.
With `N#CCC(C1CCN(c2nc3cccc(F)c3o2)C1)n1cc(-c2ncnc3[nH]ccc23)cn1` (single isomer, unassigned) [Example 21, 3-[1-(7-fluoro-1,3-benzoxazol-2-yl)pyrrolidin-3-yl]-3-[4-(7H-pyrrolo[2,3-d]pyrimidin-4-yl)-1H-pyrazol-1-yl]propanenitrile], the IC50 in experiment [1] (Assay Conditions 1 mM ATP) is less than 50 nM. In addition, in experiment [2] (Assay Conditions 1 mM ATP), the “JAK2/JAK1 IC50 ratio” value is listed as 31.8.
In the same order, the values of `N#CCC(C1CCN(c2nc3cc(F)cc(F)c3o2)C1)n1cc(-c2ncnc3[nH]ccc23)cn1` (single isomer, unassigned) [Example 22, 3-[1-(5,7-difluoro-1,3-benzoxazol-2-yl)pyrrolidin-3-yl]-3-[4-(7H-pyrrolo[2,3-d]pyrimidin-4-yl)-1H-pyrazol-1-yl]propanenitrile] are less than 50 nM and more than 7.
In the same order, the values of `CSc1nccc(N2CCC(C(CC#N)n3cc(-c4ncnc5[nH]ccc45)cn3)C2)n1` (single isomer, unassigned) [Example 23, 3-{1-[2-(methylthio)pyrimidin-4-yl]pyrrolidin-3-yl}-3-[4-(7H-pyrrolo[2,3-d]pyrimidin-4-yl)-1H-pyrazol-1-yl]propanenitrile] are less than 50 nM and 2.3.
On the same counts, the results for `C[S+]([O-])c1nccc(N2CCC(C(CC#N)n3cc(-c4ncnc5[nH]ccc45)cn3)C2)n1` (single isomer, unassigned) [Example 24, 3-{1-[2-(methylsulfinyl)pyrimidin-4-yl]pyrrolidin-3-yl}-3-[4-(7H-pyrrolo[2,3-d]pyrimidin-4-yl)-1H-pyrazol-1-yl]propanenitrile] are less than 50 nM and 2.5.
`CS(=O)(=O)c1nccc(N2CCC(C(CC#N)n3cc(-c4ncnc5[nH]ccc45)cn3)C2)n1` (single isomer, unassigned) [Example 25, 3-{1-[2-(methylsulfonyl)pyrimidin-4-yl]pyrrolidin-3-yl}-3-[4-(7H-pyrrolo[2,3-d]pyrimidin-4-yl)-1H-pyrazol-1-yl]propanenitrile] registered an IC50 in experiment [1] (Assay Conditions 1 mM ATP) of less than 50 nM. Further, in experiment [2] (Assay Conditions 1 mM ATP), the “JAK2/JAK1 IC50 ratio” value is recorded as 34.
`CS(=O)(=O)c1cccc(N2CCC(C(CC#N)n3cc(-c4ncnc5[nH]ccc45)cn3)C2)n1` (single isomer, unassigned) [Example 26, 3-{1-[6-(methylsulfonyl)pyridin-2-yl]pyrrolidin-3-yl}-3-[4-(7H-pyrrolo[2,3-d]pyrimidin-4-yl)-1H-pyrazol-1-yl]propanenitrile] showed an IC50 in experiment [1] (Assay Conditions 1 mM ATP) of 50 to 100 nM. Also, the “JAK2/JAK1 IC50 ratio” value in experiment [2] (Assay Conditions 1 mM ATP) is 5.2.
In the same order, the values of `CS(=O)(=O)c1cc(N2CCC(C(CC#N)n3cc(-c4ncnc5[nH]ccc45)cn3)C2)ccn1` (single isomer, unassigned) [Example 27, 3-{1-[2-(methylsulfonyl)pyridin-4-yl]pyrrolidin-3-yl}-3-[4-(7H-pyrrolo[2,3-d]pyrimidin-4-yl)-1H-pyrazol-1-yl]propanenitrile] are less than 50 nM and 14.
In the same order, the values of `N#CCC(C1CCN(c2ccc3c(n2)[S+]([O-])CC3)C1)n1cc(-c2ncnc3[nH]ccc23)cn1` (single isomer, unassigned) [Example 28, 3-[1-(1-oxido-2,3-dihydrothieno[2,3-b]pyridin-6-yl)pyrrolidin-3-yl]-3-[4-(7H-pyrrolo[2,3-d]pyrimidin-4-yl)-1H-pyrazol-1-yl]propanenitrile] are less than 50 nM and 4.
On the same counts, the results for `N#CCC(C1CCN(c2ccc3c(n2)SCC3)C1)n1cc(-c2ncnc3[nH]ccc23)cn1` (single isomer, unassigned) [Example 29, 3-[1-(2,3-dihydrothieno[2,3-b]pyridin-6-yl)pyrrolidin-3-yl]-3-[4-(7H-pyrrolo[2,3-d]pyrimidin-4-yl)-1H-pyrazol-1-yl]propanenitrile] are less than 50 nM and 12.
As for `N#CCC(C1CCN(c2ccc3c(n2)S(=O)(=O)CC3)C1)n1cc(-c2ncnc3[nH]ccc23)cn1` (single isomer, unassigned) [Example 30, 3-[1-(1,1-dioxido-2,3-dihydrothieno[2,3-b]pyridin-6-yl)pyrrolidin-3-yl]-3-[4-(7H-pyrrolo[2,3-d]pyrimidin-4-yl)-1H-pyrazol-1-yl]propanenitrile], the half-maximal inhibitory concentration (IC50) in experiment [1] (Assay Conditions 1 mM ATP) is less than 50 nM. Besides, the “JAK2/JAK1 IC50 ratio” value in experiment [2] (Assay Conditions 1 mM ATP) amounted to 14.5.
